Three molecules from patent US20140212381A1, “MACROCYCLES” (Scynexis, Inc., priority 2012, published 2014) can be followed below.

In brackets after ≈: the same amount, converted by molar mass. Numbered stars: 1 amine (or outer) side, 2 acyl side, 3 side chain; on linkers, the order of the positions; unused ones are H or OH. Square brackets hold non-standard residues; d marks the D form. Peptide text beside a SMILES is read from it. ξ: configuration not given here. X5 = CCN(CC)C1(CS[C@H](C(=O)[*:2])N(C)[*:1])CC1; X1 = CN(C)C1(CS[C@H](C(=O)[*:2])N(C)[*:1])CCC1; X6 = CCN(C)C1(CS[C@H](C(=O)[*:2])N(C)[*:1])CC1; ξNMeBmt = C/C=C/C[C@@H](C)[C@@H](O)C(NC)C(=O)O; NMeLeu(4-OH) = CN[C@@H](CC(C)(C)O)C(=O)O; dNMeL = CN[C@H](CC(C)C)C(=O)O; dNMeV = CN[C@@H](C(=O)O)C(C)C; dAbu = CC[C@@H](N)C(=O)O

Usually IC50 stands for the concentration at which inhibition is half-maximal. As a reminder, the EC50 is the concentration at which the effect is half-maximal.

Assay [1] deals with IL-2 production by stimulated T Cells (Jurkat cells). Description: Inhibition of IL-2 production in stimulated Jurkat cells. Type of assay: cell-based. As to conditions: Homo sapiens; PMA/PHA stimulated Jurkat cells, mean of two independent assays; read-out: IL-2 inhibition IC50. As for the experimental part:
Compounds of formula (I) were tested for their inhibition of IL-2 production by stimulated T Cells, using Jurkat cells with anti-CD3 and anti-CD28 co-stimulation. […] Cyclosporine A (control) was also run at a 0.5-Log 9-point titration. starting at 500 ng/mL. All compounds to be tested were dissolved in dimethyl sulfoxide. Cytotoxicity was evaluated with parallel Alamar Blue plates. Jurkat cells were seeded at […] per well in 200 μL growth media in a 96-well plate. Cells were cultured in complete RPMI medium supplemented with 10% fetal bovine serum with one hour incubation at 37° C. with 5% carbon dioxide
PMA and PHA were diluted in complete media to a final concentration of 1 ng/mL and 5 μg/mL respectively. The diluted compounds were mixed 1:1 and 25 μL of the mixture was added per well. The plates were incubated overnight at 37° C. in 5% CO2.
The following day one hundred microliters of cell culture supernatant were transferred from each well to a non-sterile V-bottom plate and stored plate at −80° C. prior to analysis. Determination of IL-2 concentrations in the supernatant was performed using the Pierce Human IL-2 Colorimetric ELISA kit as per the manufacturer's directions (Pierce, #EH2IL25). Cell culture supernatants were diluted with an equal volume of complete RPMI (25 μL sample+25 μL RPMI per well) prior to testing in order to remain in linear range of the assay.
Duplicate wells containing cells in the absence of PMA/PHA and test drug (background) and duplicate wells containing cells stimulated with PMA/PHA in the absence of test drug (100% production of IL-2) were included as controls. Activated cells treated with DMSO were used to normalize IL-2 values. IL-2 standard curves were generated using a 4-parameter curve fit in SoftMax Pro software from Molecular Devices.
Two independent assays were performed to evaluate the effect of cyclosporine A and representative compounds on IL-2 production in PMA/PHA stimulated Jurkat cells (mean values were calculated).

Assay [2] has as its system HCV RNA replicon, Genotype 1b. Put plainly: HCV replicon assay, 1b replicon (LUC). The note with it: Hepatitis C virus, GETYPE1B, in Homo sapiens, 72 h, read-out: mean EC50, Genotype 1b. A general note: Replicon systems follow genome replication, usually without infectious particles.
The next assay concerns the target Cyclophilin B (Homo sapiens, UniProt P23284). Put plainly: Cyclophilin binding, competitive ELISA. As to conditions: human recombinant cyclophilin. The text has this:
Plates were washed as described above. […] Plates were washed as described above.
(ELISA stands for enzyme-linked immunosorbent assay.)

Chain of Cyclophilin B (P23284 34-216): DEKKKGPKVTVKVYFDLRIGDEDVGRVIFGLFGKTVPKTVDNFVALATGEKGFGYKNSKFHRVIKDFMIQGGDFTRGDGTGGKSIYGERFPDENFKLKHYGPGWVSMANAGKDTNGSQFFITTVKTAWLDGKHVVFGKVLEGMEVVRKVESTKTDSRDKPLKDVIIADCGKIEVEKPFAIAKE

Take `C/C=C/C[C@@H](C)[C@@H](O)C1C(=O)N[C@H](CC)C(=O)N(C)[C@H](SCC2(N(C)C)CCC2)C(=O)N(C)[C@@H](CC(C)(C)O)C(=O)N[C@H](C(C)C)C(=O)N(C)[C@H](CC(C)C)C(=O)N[C@H](C)C(=O)N[C@@H](C)C(=O)N(C)[C@H](CC(C)C)C(=O)N(C)[C@H](CC(C)C)C(=O)N(C)[C@H](C(C)C)C(=O)N1C` (some centres unmarked) [Compound C] (cyclo(A[dNMeL][dNMeL][dNMeV][ξNMeBmt][dAbu][X1][NMeLeu(4-OH)][dV][dNMeL][dA])): the IC50 in assay [1] was found to be 9.31 µg/mL (≈ 6.84 µM); at Cyclophilin B, 11 nM. Also, the half-maximal effective concentration (EC50) in assay [2] came to 160 nM.
Take `C/C=C/C[C@@H](C)[C@@H](O)C1C(=O)N[C@H](CC)C(=O)N(C)[C@H](SCC2(N(CC)CC)CC2)C(=O)N(C)[C@@H](CC(C)(C)O)C(=O)N[C@H](C(C)C)C(=O)N(C)[C@H](CC(C)C)C(=O)N[C@H](C)C(=O)N[C@@H](C)C(=O)N(C)[C@H](CC(C)C)C(=O)N(C)[C@H](CC(C)C)C(=O)N(C)[C@H](C(C)C)C(=O)N1C` (some centres unmarked) [Compound D] (cyclo(A[dNMeL][dNMeL][dNMeV][ξNMeBmt][dAbu][X5][NMeLeu(4-OH)][dV][dNMeL][dA])): the IC50 in assay [1] was found to be 13.4 µg/mL (≈ 9.74 µM); at Cyclophilin B, 64 nM. The EC50 in assay [2] was 70 nM.
Regarding `C/C=C/C[C@@H](C)[C@@H](O)C1C(=O)N[C@H](CC)C(=O)N(C)[C@H](SCC2(N(C)CC)CC2)C(=O)N(C)[C@@H](CC(C)(C)O)C(=O)N[C@H](C(C)C)C(=O)N(C)[C@H](CC(C)C)C(=O)N[C@H](C)C(=O)N[C@@H](C)C(=O)N(C)[C@H](CC(C)C)C(=O)N(C)[C@H](CC(C)C)C(=O)N(C)[C@H](C(C)C)C(=O)N1C` (some centres unmarked) [Compound E] (cyclo(A[dNMeL][dNMeL][dNMeV][ξNMeBmt][dAbu][X6][NMeLeu(4-OH)][dV][dNMeL][dA])), the IC50 in assay [1] was > 13.6 µg/mL. Besides, the half-maximal effective concentration (EC50) in assay [2] was determined as 20 nM.
